Here are results for 14 compounds from patent US7074789B2, “Kinase inhibitors” (Amgen Inc., priority 1999, dated 2006).

Some results are limits rather than exact numbers.

Holding throughout (format): biochemical
For one experiment, the target named is T1, PDGFRB (Homo sapiens, UniProt P09619).
T1 construct: Kinases are expressed as either kinase domains or full length constructs; made in house
Put plainly: Kinase inhibition assay (33P transfer), PDGFRB. To be noted: read-out: PDGFRB-1.

The next experiment concerns the target T2, Lck (Homo sapiens, UniProt P06239).
T2 construct: Kinases are expressed as either kinase domains or full length constructs; made in house
Put plainly: Kinase inhibition assay (33P transfer), Lck. The conditions noted are these: Table 3, class symbols; read-out: Lck-1. Summed up: (§1)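 33P-ATP transfer to coated synthetic polymer substrates; acid wash (0.5% H3PO4), scintillant, liquid scintillation count. Enzymes: His- or GST-fusion kinases from E. coli or High Five insect cells.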

Another experiment addresses T3, AKT (Homo sapiens, UniProt Q9Y243).
T3 construct: Kinases are expressed as either kinase domains or full length constructs; made in house
Description: Kinase inhibition assay (33P transfer), AKT. To be noted: Table 2, class symbols A-E; read-out: AKT3-1. The method, boiled down:
as §1

The target in the next experiment is T4, IGFR-1 (Homo sapiens, UniProt P08069).
T4 construct: Kinases are expressed as either kinase domains or full length constructs; made in house
Put plainly: Kinase inhibition assay (33P transfer), IGFR-1. The conditions noted are these: Table 2, class symbols A-E.

The next experiment addresses T5, Itk (Homo sapiens, UniProt Q08881).
T5 construct: Kinases are expressed as either kinase domains or full length constructs; made in house
T5 sequence (Q08881 1-620): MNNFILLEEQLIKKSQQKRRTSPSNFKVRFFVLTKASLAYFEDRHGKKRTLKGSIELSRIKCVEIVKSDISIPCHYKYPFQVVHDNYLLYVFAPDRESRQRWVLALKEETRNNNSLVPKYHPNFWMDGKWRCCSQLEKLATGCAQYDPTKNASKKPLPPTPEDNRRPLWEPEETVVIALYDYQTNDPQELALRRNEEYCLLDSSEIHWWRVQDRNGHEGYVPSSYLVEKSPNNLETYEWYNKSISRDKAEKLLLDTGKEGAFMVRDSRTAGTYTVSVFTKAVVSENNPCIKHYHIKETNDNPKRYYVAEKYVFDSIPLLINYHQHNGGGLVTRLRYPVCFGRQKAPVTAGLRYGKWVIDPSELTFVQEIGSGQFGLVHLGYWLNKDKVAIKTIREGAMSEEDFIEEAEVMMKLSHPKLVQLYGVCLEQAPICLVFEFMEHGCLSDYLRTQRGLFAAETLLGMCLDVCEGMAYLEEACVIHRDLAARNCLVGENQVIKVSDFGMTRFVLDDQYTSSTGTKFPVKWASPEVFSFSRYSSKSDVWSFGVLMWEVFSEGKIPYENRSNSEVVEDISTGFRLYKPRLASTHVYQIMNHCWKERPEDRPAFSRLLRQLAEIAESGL
Description: Kinase inhibition assay (33P transfer), Itk. The conditions noted are these: Table 3, class symbols; read-out: Itk-1. Summed up:
(§2)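 Read-out: scintillation counts of 33P moved from ATP onto synthetic peptide polymer coated on the well surface, after washing with 0.5% phosphoric acid. Enzymes were tagged (GST or polyHistidine) and came from bacterial or insect-cell expression. IC50 marks 50% loss of incorporated label.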

The target of another experiment is T6, Zap-70 (Homo sapiens, UniProt P43403).
T6 construct: Kinases are expressed as either kinase domains or full length constructs; made in house
T6 sequence (P43403 1-619): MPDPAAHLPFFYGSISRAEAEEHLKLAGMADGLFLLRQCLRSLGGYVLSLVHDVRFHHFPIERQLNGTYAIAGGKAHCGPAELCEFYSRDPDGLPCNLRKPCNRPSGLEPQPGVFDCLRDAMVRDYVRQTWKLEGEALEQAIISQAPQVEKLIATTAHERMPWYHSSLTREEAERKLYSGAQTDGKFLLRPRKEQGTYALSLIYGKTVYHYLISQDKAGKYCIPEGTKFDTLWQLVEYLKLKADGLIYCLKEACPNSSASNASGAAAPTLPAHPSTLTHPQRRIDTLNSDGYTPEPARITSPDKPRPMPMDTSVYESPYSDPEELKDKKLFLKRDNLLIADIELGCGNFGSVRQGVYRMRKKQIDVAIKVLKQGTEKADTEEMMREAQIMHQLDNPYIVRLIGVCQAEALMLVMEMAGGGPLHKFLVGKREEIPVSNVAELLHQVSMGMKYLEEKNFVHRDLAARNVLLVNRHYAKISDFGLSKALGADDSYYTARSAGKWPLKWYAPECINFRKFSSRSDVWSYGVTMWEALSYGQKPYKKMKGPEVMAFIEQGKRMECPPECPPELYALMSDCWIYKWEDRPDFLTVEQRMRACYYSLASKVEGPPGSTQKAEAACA
Put plainly: Kinase inhibition assay (33P transfer), Zap-70. To be noted: Table 3, class symbols; read-out: Zap-1. Summed up:
as §1

In another experiment the target is T7, Kdr (Homo sapiens, UniProt P35968).
T7 construct: Kinases are expressed as either kinase domains or full length constructs; made in house
T7 sequence (P35968 20-1356, species assumed): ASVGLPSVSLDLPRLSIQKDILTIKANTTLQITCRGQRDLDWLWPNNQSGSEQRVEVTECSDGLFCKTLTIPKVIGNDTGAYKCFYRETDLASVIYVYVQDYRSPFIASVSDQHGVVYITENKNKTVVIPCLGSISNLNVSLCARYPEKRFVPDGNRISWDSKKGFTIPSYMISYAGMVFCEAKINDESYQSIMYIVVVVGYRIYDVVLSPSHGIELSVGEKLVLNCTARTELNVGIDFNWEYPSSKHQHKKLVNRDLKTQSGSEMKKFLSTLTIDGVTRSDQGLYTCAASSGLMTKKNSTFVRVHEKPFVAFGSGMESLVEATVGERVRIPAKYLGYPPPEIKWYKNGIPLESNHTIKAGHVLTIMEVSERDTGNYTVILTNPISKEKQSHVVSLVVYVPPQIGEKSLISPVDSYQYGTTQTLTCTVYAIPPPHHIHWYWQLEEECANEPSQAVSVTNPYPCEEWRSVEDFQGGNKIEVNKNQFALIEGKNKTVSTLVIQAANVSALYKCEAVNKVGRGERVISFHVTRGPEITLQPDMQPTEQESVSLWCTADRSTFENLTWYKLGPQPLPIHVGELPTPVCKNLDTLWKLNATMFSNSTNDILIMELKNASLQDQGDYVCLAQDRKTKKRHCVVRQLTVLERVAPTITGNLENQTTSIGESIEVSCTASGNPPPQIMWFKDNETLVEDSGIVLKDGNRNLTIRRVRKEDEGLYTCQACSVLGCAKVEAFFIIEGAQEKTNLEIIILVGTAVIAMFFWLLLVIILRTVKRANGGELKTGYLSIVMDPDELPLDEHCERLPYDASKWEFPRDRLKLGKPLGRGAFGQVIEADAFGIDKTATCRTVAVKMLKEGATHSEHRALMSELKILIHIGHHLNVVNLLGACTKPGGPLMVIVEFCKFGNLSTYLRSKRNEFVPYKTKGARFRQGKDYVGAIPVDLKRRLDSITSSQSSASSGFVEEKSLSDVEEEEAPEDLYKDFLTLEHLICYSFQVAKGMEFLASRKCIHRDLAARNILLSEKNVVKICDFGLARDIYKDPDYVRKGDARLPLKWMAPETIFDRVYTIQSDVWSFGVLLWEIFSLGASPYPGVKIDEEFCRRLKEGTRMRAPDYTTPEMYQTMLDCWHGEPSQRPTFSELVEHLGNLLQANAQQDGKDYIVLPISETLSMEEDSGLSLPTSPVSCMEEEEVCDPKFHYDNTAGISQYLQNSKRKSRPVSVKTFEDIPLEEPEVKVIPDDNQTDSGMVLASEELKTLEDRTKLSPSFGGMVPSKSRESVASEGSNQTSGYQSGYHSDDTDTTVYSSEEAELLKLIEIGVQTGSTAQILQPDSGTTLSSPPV
Description: Kinase inhibition assay (33P transfer), Kdr. The conditions noted are these: Table 3, class symbols; read-out: KDR-1. Summed up: as §1

The target of a further experiment is T8, EGFR (Homo sapiens, UniProt P00533).
T8 construct: Kinases are expressed as either kinase domains or full length constructs; made in house
T8 sequence (P00533 25-1210, species assumed): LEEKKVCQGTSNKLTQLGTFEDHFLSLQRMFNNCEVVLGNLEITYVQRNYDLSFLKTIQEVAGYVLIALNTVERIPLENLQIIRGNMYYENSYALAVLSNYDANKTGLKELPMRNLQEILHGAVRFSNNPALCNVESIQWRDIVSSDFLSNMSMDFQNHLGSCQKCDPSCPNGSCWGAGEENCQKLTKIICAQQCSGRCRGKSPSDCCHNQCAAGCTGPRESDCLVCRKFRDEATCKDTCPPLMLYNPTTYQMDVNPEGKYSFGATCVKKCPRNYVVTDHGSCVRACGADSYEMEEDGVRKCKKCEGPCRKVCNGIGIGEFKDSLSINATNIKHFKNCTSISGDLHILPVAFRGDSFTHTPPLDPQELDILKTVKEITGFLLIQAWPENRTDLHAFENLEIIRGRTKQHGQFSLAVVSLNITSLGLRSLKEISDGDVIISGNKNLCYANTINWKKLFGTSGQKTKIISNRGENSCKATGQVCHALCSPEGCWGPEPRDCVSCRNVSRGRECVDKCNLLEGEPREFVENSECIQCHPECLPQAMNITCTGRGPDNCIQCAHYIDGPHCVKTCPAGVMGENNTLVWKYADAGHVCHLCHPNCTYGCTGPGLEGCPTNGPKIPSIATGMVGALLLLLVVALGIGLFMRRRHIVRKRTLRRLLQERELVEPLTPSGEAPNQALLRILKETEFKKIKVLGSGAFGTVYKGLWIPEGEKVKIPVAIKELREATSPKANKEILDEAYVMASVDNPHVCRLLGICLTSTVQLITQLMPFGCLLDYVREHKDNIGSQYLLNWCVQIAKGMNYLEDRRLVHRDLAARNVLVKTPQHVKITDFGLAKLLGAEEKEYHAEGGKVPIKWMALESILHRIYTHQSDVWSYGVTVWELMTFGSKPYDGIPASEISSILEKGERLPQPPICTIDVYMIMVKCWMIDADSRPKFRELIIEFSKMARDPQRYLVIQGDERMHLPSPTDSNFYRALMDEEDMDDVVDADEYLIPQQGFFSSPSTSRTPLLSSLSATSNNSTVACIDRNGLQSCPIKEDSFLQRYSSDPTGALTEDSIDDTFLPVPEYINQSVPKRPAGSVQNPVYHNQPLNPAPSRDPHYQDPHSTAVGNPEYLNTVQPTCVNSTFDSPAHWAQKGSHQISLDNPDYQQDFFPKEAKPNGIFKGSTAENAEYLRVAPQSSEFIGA
Put plainly: Kinase inhibition assay (33P transfer), EGFR. To be noted: Table 2, class symbols A-E; read-out: EGFR-1. Summed up:
as §2

The target of another experiment is T9, ErbB2 (Homo sapiens, UniProt P04626).
T9 construct: Kinases are expressed as either kinase domains or full length constructs; made in house
Put plainly: Kinase inhibition assay (33P transfer), ErbB2. The conditions noted are these: read-out: ErbB2-2. Summed up: as §2

For another experiment, the target named is T10, c-Met (Homo sapiens, UniProt P08581).
T10 construct: Kinases are expressed as either kinase domains or full length constructs; made in house
T10 sequence (P08581 25-1390): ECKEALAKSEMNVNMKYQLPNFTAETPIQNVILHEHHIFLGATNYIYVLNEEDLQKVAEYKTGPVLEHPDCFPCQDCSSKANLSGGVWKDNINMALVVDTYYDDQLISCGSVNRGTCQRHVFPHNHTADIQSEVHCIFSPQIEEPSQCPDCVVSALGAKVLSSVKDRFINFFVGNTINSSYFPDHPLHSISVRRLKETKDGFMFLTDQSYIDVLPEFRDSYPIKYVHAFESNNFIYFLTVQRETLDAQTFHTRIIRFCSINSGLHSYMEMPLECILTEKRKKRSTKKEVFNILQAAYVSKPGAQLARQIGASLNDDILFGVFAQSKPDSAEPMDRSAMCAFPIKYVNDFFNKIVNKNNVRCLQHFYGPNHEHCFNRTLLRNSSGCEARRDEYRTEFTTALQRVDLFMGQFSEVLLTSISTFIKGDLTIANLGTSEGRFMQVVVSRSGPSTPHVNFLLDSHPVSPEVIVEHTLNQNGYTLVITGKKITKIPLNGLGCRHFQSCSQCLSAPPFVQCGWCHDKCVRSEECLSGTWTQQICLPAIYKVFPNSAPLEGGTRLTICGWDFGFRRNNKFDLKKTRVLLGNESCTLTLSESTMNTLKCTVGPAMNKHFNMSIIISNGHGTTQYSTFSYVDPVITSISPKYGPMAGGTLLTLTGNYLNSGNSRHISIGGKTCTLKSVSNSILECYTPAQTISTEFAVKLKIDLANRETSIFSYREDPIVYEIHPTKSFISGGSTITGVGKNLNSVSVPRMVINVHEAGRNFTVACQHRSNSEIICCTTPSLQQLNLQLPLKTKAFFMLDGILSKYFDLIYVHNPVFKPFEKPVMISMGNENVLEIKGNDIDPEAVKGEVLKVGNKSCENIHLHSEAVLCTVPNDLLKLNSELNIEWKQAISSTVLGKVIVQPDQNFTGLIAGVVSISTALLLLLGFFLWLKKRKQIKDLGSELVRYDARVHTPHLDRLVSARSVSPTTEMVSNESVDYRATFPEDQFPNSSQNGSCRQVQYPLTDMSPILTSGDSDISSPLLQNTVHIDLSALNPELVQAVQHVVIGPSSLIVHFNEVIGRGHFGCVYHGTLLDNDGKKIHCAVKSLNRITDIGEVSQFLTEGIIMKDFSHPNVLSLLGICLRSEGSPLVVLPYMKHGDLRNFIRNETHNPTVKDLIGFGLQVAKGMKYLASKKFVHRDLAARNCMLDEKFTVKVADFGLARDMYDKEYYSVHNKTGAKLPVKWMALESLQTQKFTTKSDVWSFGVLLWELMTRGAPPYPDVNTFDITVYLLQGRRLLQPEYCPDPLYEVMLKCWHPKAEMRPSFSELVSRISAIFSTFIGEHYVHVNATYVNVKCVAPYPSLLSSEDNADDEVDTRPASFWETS
Put plainly: Kinase inhibition assay (33P transfer), c-Met. To be noted: Table 2, class symbols A-E; read-out: Met-1. Summed up:
as §2

T3 sequence (Q9Y243 whole entry, the tested form may be a part): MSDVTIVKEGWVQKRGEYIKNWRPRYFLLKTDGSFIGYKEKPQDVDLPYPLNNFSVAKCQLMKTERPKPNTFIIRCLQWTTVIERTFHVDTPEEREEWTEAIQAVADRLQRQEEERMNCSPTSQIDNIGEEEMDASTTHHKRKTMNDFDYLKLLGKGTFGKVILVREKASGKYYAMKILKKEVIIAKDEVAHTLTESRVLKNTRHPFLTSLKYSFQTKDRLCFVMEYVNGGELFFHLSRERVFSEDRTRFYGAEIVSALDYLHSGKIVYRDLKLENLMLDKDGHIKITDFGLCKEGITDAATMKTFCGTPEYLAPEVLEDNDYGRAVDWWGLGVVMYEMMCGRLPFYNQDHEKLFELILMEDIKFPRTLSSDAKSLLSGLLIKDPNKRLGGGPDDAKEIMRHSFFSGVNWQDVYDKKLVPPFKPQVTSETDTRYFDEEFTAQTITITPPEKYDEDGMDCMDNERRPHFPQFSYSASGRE
T2 sequence (P06239 whole entry, species assumed, the tested form may be a part): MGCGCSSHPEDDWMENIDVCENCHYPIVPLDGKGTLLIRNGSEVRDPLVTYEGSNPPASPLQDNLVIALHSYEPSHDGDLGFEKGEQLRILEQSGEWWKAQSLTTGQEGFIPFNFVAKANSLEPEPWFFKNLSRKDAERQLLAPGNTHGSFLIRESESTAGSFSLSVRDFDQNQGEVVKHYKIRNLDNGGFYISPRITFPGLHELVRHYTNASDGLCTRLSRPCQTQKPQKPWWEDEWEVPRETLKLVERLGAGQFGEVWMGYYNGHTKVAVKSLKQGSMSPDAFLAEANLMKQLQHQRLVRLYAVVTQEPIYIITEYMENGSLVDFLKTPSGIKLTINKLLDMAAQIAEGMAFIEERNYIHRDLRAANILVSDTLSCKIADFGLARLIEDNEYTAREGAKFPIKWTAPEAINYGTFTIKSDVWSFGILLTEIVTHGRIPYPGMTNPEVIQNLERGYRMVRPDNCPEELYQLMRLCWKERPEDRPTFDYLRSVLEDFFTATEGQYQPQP

On to `c1ccc(CNc2nc3ccccc3n2-c2ncnc(Nc3cccc(Cn4ccnn4)c3)n2)nc1` [Compound 962], for which the IC50 at PDGFRB is less than 0.841 µM; at Lck, 0.841 to 5.05 µM; on AKT, more than 9.46 µM; at IGFR-1, 7.36 to 9.46 µM; on Itk, more than 9.46 µM; at Zap-70, more than 9.46 µM. In addition, the IC50 at Kdr is less than 0.841 µM; at EGFR, 5.05 to 7.36 µM; at ErbB2, 7.36 to 9.46 µM; on c-Met it was more than 9.46 µM.

`c1cc(Cn2ccnn2)cc(Nc2ncnc(-n3c(Nc4ccc5[nH]ccc5c4)nc4ccccc43)n2)c1` [Compound 963]: the IC50 at PDGFRB was less than 0.801 µM; at Lck, 0.801 to 4.8 µM; on AKT it was 7.01 to 9.01 µM; against IGFR-1 it was 4.8 to 7.01 µM; at Itk, 4.8 to 7.01 µM; at Zap-70, 7.01 to 9.01 µM. Also, the IC50 at Kdr is less than 0.801 µM; on EGFR, 4.8 to 7.01 µM; at ErbB2, 0.801 to 4.8 µM; on c-Met it was 0.801 to 4.8 µM.

`Fc1cccc(CNc2nc3ccccc3n2-c2ncnc(Nc3cccc(Cn4ccnn4)c3)n2)c1` [Compound 964]: the IC50 at PDGFRB is less than 0.812 µM; at Lck it was 4.87 to 7.11 µM; at AKT it was more than 9.14 µM; against IGFR-1, more than 9.14 µM; at Itk, 7.11 to 9.14 µM; on Zap-70, more than 9.14 µM. The IC50 on Kdr is less than 0.812 µM; at EGFR it was 0.812 to 4.87 µM; on ErbB2 it was 4.87 to 7.11 µM; at c-Met it was more than 9.14 µM.

As for `c1ccc(CNc2nc3ccccc3n2-c2ncnc(Nc3cccc(Cn4ccnn4)c3)n2)cc1` [Compound 965], the IC50 on PDGFRB was less than 0.843 µM; at Lck, 0.843 to 5.06 µM; on AKT it was more than 9.48 µM; at IGFR-1, more than 9.48 µM; on Itk it was 5.06 to 7.38 µM; at Zap-70, more than 9.48 µM. The IC50 at Kdr was less than 0.843 µM; at EGFR it was less than 0.843 µM; at ErbB2, 0.843 to 5.06 µM; on c-Met, more than 9.48 µM.

For `NC(=O)Cc1cccc(Nc2ncnc(Nc3cccc(Br)c3)n2)c1` [Compound 966], the IC50 on PDGFRB is less than 1 µM; at Lck, 6.01 to 8.77 µM; on AKT, more than 11.3 µM; against IGFR-1 it was less than 1 µM; at Itk it was more than 11.3 µM; at Zap-70, more than 11.3 µM. The IC50 is 1 to 6.01 µM on Kdr, less than 1 µM on EGFR, more than 11.3 µM at ErbB2 and more than 11.3 µM on c-Met.

With `NC(=O)Cc1cccc(Nc2ncnc(-n3c(NCc4ccccc4)nc4ccccc43)n2)c1` [Compound 967], the IC50 on PDGFRB was less than 0.888 µM; at Lck it was less than 0.888 µM; at AKT, 7.77 to 9.99 µM; on IGFR-1, more than 9.99 µM; at Itk, 7.77 to 9.99 µM; on Zap-70, more than 9.99 µM. In addition, the IC50 on Kdr was less than 0.888 µM; on EGFR, less than 0.888 µM; on ErbB2, 0.888 to 5.33 µM; on c-Met, 5.33 to 7.77 µM.

For the compound `O=C(O)Cc1cccc(Nc2ncnc(Nc3ccc(Cl)cc3F)n2)c1` [Compound 968], the IC50 is less than 1.07 µM on PDGFRB; more than 12 µM on Lck; more than 12 µM on AKT; 9.36 to 12 µM on IGFR-1; more than 12 µM on Itk; more than 12 µM at Zap-70. The IC50 was less than 1.07 µM on Kdr, 1.07 to 6.42 µM on EGFR, 6.42 to 9.36 µM at ErbB2 and 9.36 to 12 µM at c-Met.

In the case of `COC(=O)c1ccc(-c2cc(Nc3ncnc(Nc4cccc(Cc5nnn[nH]5)c4)n3)[nH]n2)cc1` [Compound 991], the IC50 was in the range of 0.852 to 5.11 µM at PDGFRB; 5.11 to 7.46 µM at Lck; 5.11 to 7.46 µM on AKT; 0.852 to 5.11 µM on IGFR-1; 5.11 to 7.46 µM at Itk; 7.46 to 9.59 µM at Zap-70. For the same compound, the IC50 on Kdr is 5.11 to 7.46 µM; on EGFR, 0.852 to 5.11 µM; on ErbB2, 0.852 to 5.11 µM; on c-Met, less than 0.852 µM.

Regarding `COC(=O)c1ccc(-c2cc(Nc3ncnc(Nc4cccc(CCC(=O)O)c4)n3)[nH]n2)cc1` [Compound 992], the IC50 at PDGFRB was 0.871 to 5.22 µM; at Lck it was less than 0.871 µM; on AKT, 5.22 to 7.62 µM; at IGFR-1 it was less than 0.871 µM; at Itk it was 0.871 to 5.22 µM; on Zap-70 it was 0.871 to 5.22 µM. For the same compound, the IC50 is 0.871 to 5.22 µM at Kdr, 0.871 to 5.22 µM on EGFR, 0.871 to 5.22 µM on ErbB2 and less than 0.871 µM on c-Met.

On to `COc1cc(Nc2ncnc(Nc3cc(-c4ccc(C(=O)N(C)C)cc4)n[nH]3)n2)cc(OC)c1OC` [Compound 993], for which the IC50 was 0.815 to 4.89 µM at PDGFRB; less than 0.815 µM on Lck; more than 9.17 µM at AKT; less than 0.815 µM at IGFR-1; 4.89 to 7.14 µM at Itk; more than 9.17 µM at Zap-70. Also, the IC50 at Kdr was 0.815 to 4.89 µM; at EGFR, 0.815 to 4.89 µM; at ErbB2 it was 0.815 to 4.89 µM; at c-Met, less than 0.815 µM.

On to `COc1ccc(CNc2ncnc(Nc3cc(-c4ccco4)n[nH]3)n2)cc1` [Compound 994], for which the IC50 on PDGFRB, on Lck, at AKT, at IGFR-1, at Itk and at Zap-70 was more than 12.4 µM throughout. In addition, the IC50 on Kdr, at EGFR, at ErbB2 and at c-Met was more than 12.4 µM throughout.

For the compound `c1ccc(CNc2ncnc(Nc3cc(-c4ccco4)n[nH]3)n2)nc1` [Compound 995], the IC50 at PDGFRB is 1.2 to 7.18 µM; on Lck it was more than 13.5 µM; at AKT, more than 13.5 µM; at IGFR-1, 7.18 to 10.5 µM; on Itk, 10.5 to 13.5 µM; at Zap-70 it was more than 13.5 µM. Also, the IC50 is 7.18 to 10.5 µM on Kdr, 1.2 to 7.18 µM on EGFR, more than 13.5 µM at ErbB2 and more than 13.5 µM at c-Met.

As for `Fc1ccc(CNc2ncnc(Nc3cc(-c4ccco4)n[nH]3)n2)cc1` [Compound 996], the IC50 on PDGFRB was more than 12.8 µM; at Lck it was more than 12.8 µM; on AKT it was more than 12.8 µM; on IGFR-1 it was 1.14 to 6.83 µM; on Itk it was more than 12.8 µM; on Zap-70, more than 12.8 µM. For the same compound, the IC50 was more than 12.8 µM on Kdr, 9.96 to 12.8 µM at EGFR, more than 12.8 µM on ErbB2 and more than 12.8 µM on c-Met.

As to `COc1cc(CNc2ncnc(Nc3cc(-c4ccco4)n[nH]3)n2)cc(OC)c1OC` [Compound 997], the IC50 on PDGFRB, at Lck, at AKT, against IGFR-1, on Itk and at Zap-70 was more than 10.6 µM in each case. The IC50 at Kdr, at EGFR, on ErbB2 and on c-Met was more than 10.6 µM in each case.
